Experimental data from patent US9617602B2, “Methods and compositions for determining resistance to androgen receptor therapy” (Aragon Pharmaceuticals, Inc., priority 2012, dated 2017).

What was measured:
LNCaP cells = assay: Proliferation assay (CellTiter-Glo), agonist and antagonist mode; type: cell-based, human
[1] = system: LNCaP/AR(cs) xenograft tumors; assay: Tumor xenograft in castrated SHO male mice; type: in vivo
LNCaP/AR(cs) cells [2] = assay: Endogenous gene transcriptional assay (real-time PCR of androgen responsive genes); type: cell-based, human;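 on ORM1 expression, agonist transcription: LNCaP/AR(cs) cells without added R1881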;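 on PLD1 expression, agonist transcription: LNCaP/AR(cs) cells without added R1881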;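 on PSA expression, agonist transcription: LNCaP/AR(cs) cells without added R1881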;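 on SLUG expression, agonist transcription: LNCaP/AR(cs) cells without added R1881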;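 on TMPRSS2 expression, agonist transcription: LNCaP/AR(cs) cells without added R1881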
LNCaP/AR(cs) cells [3] = assay: Proliferation assay (CellTiter-Glo), agonist and antagonist mode; type: cell-based, human
[4] = Table 4A, 1 nM R1881 or 30 μM compound, vehicle=1.00

## CNC(=O)c1ccc(N2C(=S)N(c3cnc(C#N)c(C(F)(F)F)c3)C(=O)C23CCC3)cc1F [ARN-509]
LNCaP cells; Homo sapiens, 168 h, read-out: Antagonist Proliferation Assay (% Viability)
  viability at 0.0001 µM: < 30%
LNCaP cells; [Antagonists] = 10 μM, 7 days
  Agonist Proliferation Assay (% Viability): + (‘+’ = <30)
[1]; 30 mg/kg QD orally, castrated SHO mice, initial response
  Effect on LNCaP/AR(cs) xenograft tumors (Example 1): induced tumor regression
[1]; 30 mg/kg/day oral gavage, castrate male mice
  Anti-tumor activity in the LNCaP/AR(cs) model (Example 14): robust anti-tumor activity
LNCaP/AR(cs) cells [2]; +1 nM R1881, 0.3 μM
  AMIGO2 expression, antagonist transcription: 0.30
  BDNF expression, antagonist transcription: 0.43
  CAM2KN1 expression, antagonist transcription: 0.04
  FASN expression, antagonist transcription: 1.92
  FKBP5 expression, antagonist transcription: 33.14
  HPGD expression, antagonist transcription: 105.97
  NCAPD3 expression, antagonist transcription: 43.93
  NKX3.1 expression, antagonist transcription: 8.32
  NOV expression, antagonist transcription: 0.03
  ORM1 expression, antagonist transcription: 5100.90
  PLD1 expression, antagonist transcription: 0.02
  PSA expression, antagonist transcription: 19.09
  SLUG expression, antagonist transcription: 71.33
  STEAP4 expression, antagonist transcription: 1019.98
  TMPRSS2 expression, antagonist transcription: 19.07
LNCaP/AR(cs) cells [2]; +1 nM R1881, 1 μM
  AMIGO2 expression, antagonist transcription: 0.31
  BDNF expression, antagonist transcription: 0.35
  CAM2KN1 expression, antagonist transcription: 0.06
  FASN expression, antagonist transcription: 1.52
  FKBP5 expression, antagonist transcription: 22.49
  HPGD expression, antagonist transcription: 76.25
  NCAPD3 expression, antagonist transcription: 32.00
  NKX3.1 expression, antagonist transcription: 9.92
  NOV expression, antagonist transcription: 0.09
  ORM1 expression, antagonist transcription: 2679.73
  PLD1 expression, antagonist transcription: 0.02
  PSA expression, antagonist transcription: 21.75
  SLUG expression, antagonist transcription: 62.00
  STEAP4 expression, antagonist transcription: 742.61
  TMPRSS2 expression, antagonist transcription: 24.11
LNCaP/AR(cs) cells [2]; +1 nM R1881, 3 μM
  AMIGO2 expression, antagonist transcription: 0.52
  BDNF expression, antagonist transcription: 0.67
  CAM2KN1 expression, antagonist transcription: 0.19
  FASN expression, antagonist transcription: 1.08
  FKBP5 expression, antagonist transcription: 12.56
  HPGD expression, antagonist transcription: 32.19
  NCAPD3 expression, antagonist transcription: 15.57
  NKX3.1 expression, antagonist transcription: 12.01
  NOV expression, antagonist transcription: 0.31
  ORM1 expression, antagonist transcription: 1031.40
  PLD1 expression, antagonist transcription: 0.04
  PSA expression, antagonist transcription: 23.57
  SLUG expression, antagonist transcription: 50.70
  STEAP4 expression, antagonist transcription: 256.89
  TMPRSS2 expression, antagonist transcription: 23.38
LNCaP/AR(cs) cells [2]; +1 nM R1881, 10 μM
  AMIGO2 expression, antagonist transcription: 0.60
  BDNF expression, antagonist transcription: 0.74
  CAM2KN1 expression, antagonist transcription: 0.43
  FASN expression, antagonist transcription: 0.60
  FKBP5 expression, antagonist transcription: 2.74
  HPGD expression, antagonist transcription: 8.36
  NCAPD3 expression, antagonist transcription: 2.39
  NKX3.1 expression, antagonist transcription: 7.22
  NOV expression, antagonist transcription: 0.86
  ORM1 expression, antagonist transcription: 156.90
  PLD1 expression, antagonist transcription: 0.11
  PSA expression, antagonist transcription: 12.90
  SLUG expression, antagonist transcription: 11.15
  STEAP4 expression, antagonist transcription: 32.98
  TMPRSS2 expression, antagonist transcription: 11.45
LNCaP/AR(cs) cells [2]; +1 nM R1881, 30 μM
  AMIGO2 expression, antagonist transcription: 0.76
  BDNF expression, antagonist transcription: 0.88
  CAM2KN1 expression, antagonist transcription: 0.42
  FASN expression, antagonist transcription: 0.64
  FKBP5 expression, antagonist transcription: 1.08
  HPGD expression, antagonist transcription: 2.78
  NCAPD3 expression, antagonist transcription: 0.96
  NKX3.1 expression, antagonist transcription: 5.49
  NOV expression, antagonist transcription: 0.82
  ORM1 expression, antagonist transcription: 16.42
  PLD1 expression, antagonist transcription: 0.32
  PSA expression, antagonist transcription: 7.20
  SLUG expression, antagonist transcription: 5.49
  STEAP4 expression, antagonist transcription: 6.86
  TMPRSS2 expression, antagonist transcription: 5.94
LNCaP/AR(cs) cells [2]; [4]
  AMIGO2 gene expression: 0.72
  BDNF gene expression: 0.85
  CAM2KN1 gene expression: 0.80
  FASN gene expression: 0.75
  FKBP5 gene expression: 0.99
  HPGD gene expression: 1.18
  NCAPD3 gene expression: 0.91
  NKX3.1 gene expression: 1.13
  NOV gene expression: 1.04
  ORM1 gene expression: 0.84
  PLD1 gene expression: 1.04
  PSA gene expression: 1.43
  SLUG gene expression: 1.03
  STEAP4 gene expression: 0.90
  TMPRSS2 gene expression: 1.06
LNCaP/AR(cs) cells [2]; −R1881, 0.3 μM
  AMIGO2 expression, agonist transcription: 1.14
  BDNF expression, agonist transcription: 1.15
  CAM2KN1 expression, agonist transcription: 0.90
  FASN expression, agonist transcription: 0.46
  FKBP5 expression, agonist transcription: 0.99
  HPGD expression, agonist transcription: 0.81
  NCAPD3 expression, agonist transcription: 0.72
  NKX3.1 expression, agonist transcription: 1.11
  NOV expression, agonist transcription: 1.12
  ORM1 expression, agonist transcription: 1.37
  PLD1 expression, agonist transcription: 1.28
  PSA expression, agonist transcription: 0.44
  SLUG expression, agonist transcription: 0.38
  STEAP4 expression, agonist transcription: 0.94
  TMPRSS2 expression, agonist transcription: 0.99
LNCaP/AR(cs) cells [2]; −R1881, 1 μM
  AMIGO2 expression, agonist transcription: 0.69
  BDNF expression, agonist transcription: 0.93
  CAM2KN1 expression, agonist transcription: 0.76
  FASN expression, agonist transcription: 0.40
  FKBP5 expression, agonist transcription: 0.71
  HPGD expression, agonist transcription: 0.56
  NCAPD3 expression, agonist transcription: 0.74
  NKX3.1 expression, agonist transcription: 0.68
  NOV expression, agonist transcription: 1.00
  ORM1 expression, agonist transcription: 1.79
  PLD1 expression, agonist transcription: 0.66
  PSA expression, agonist transcription: 0.49
  SLUG expression, agonist transcription: 0.42
  STEAP4 expression, agonist transcription: 0.77
  TMPRSS2 expression, agonist transcription: 0.64
LNCaP/AR(cs) cells [2]; −R1881, 3 μM
  AMIGO2 expression, agonist transcription: 0.89
  BDNF expression, agonist transcription: 1.03
  CAM2KN1 expression, agonist transcription: 0.99
  FASN expression, agonist transcription: 0.42
  FKBP5 expression, agonist transcription: 0.91
  HPGD expression, agonist transcription: 0.78
  NCAPD3 expression, agonist transcription: 0.73
  NKX3.1 expression, agonist transcription: 0.73
  NOV expression, agonist transcription: 1.11
  ORM1 expression, agonist transcription: 1.20
  PLD1 expression, agonist transcription: 0.88
  PSA expression, agonist transcription: 0.58
  SLUG expression, agonist transcription: 0.52
  STEAP4 expression, agonist transcription: 1.05
  TMPRSS2 expression, agonist transcription: 1.04
LNCaP/AR(cs) cells [2]; −R1881, 10 μM
  AMIGO2 expression, agonist transcription: 0.65
  BDNF expression, agonist transcription: 1.03
  CAM2KN1 expression, agonist transcription: 0.78
  FASN expression, agonist transcription: 0.41
  FKBP5 expression, agonist transcription: 0.75
  HPGD expression, agonist transcription: 0.61
  NCAPD3 expression, agonist transcription: 0.74
  NKX3.1 expression, agonist transcription: 0.85
  NOV expression, agonist transcription: 0.98
  ORM1 expression, agonist transcription: 0.97
  PLD1 expression, agonist transcription: 0.65
  PSA expression, agonist transcription: 0.61
  SLUG expression, agonist transcription: 0.56
  STEAP4 expression, agonist transcription: 0.56
  TMPRSS2 expression, agonist transcription: 0.62
LNCaP/AR(cs) cells [2]; −R1881, 30 μM
  AMIGO2 expression, agonist transcription: 2.41
  BDNF expression, agonist transcription: 1.80
  CAM2KN1 expression, agonist transcription: 1.56
  FASN expression, agonist transcription: 1.30
  FKBP5 expression, agonist transcription: 1.87
  HPGD expression, agonist transcription: 1.86
  NCAPD3 expression, agonist transcription: 1.34
  NKX3.1 expression, agonist transcription: 2.24
  NOV expression, agonist transcription: 2.07
  ORM1 expression, agonist transcription: 1.35
  PLD1 expression, agonist transcription: 1.33
  PSA expression, agonist transcription: 1.13
  SLUG expression, agonist transcription: 1.36
  STEAP4 expression, agonist transcription: 1.01
  TMPRSS2 expression, agonist transcription: 2.78
LNCaP/AR(cs) cells [3]; Homo sapiens, LNCaP/AR, 168 h, read-out: Antagonist Proliferation Assay (% Viability)
  viability at 0.0001 µM: < 30%
LNCaP/AR(cs) cells [3]; LNCaP/AR(cs), [Antagonists] = 10 μM, 7 days
  Agonist Proliferation Assay (% Viability): + (‘+’ = <30)
